Structures can show the parent of a compound that is named as a salt.
Experiments:
[1] = target: baculovirus-expressed ALK (Homo sapiens, UniProt Q9UM73); assay: ALK kinase inhibition, TRF/ELISA; assay type: biochemical; conditions: read-out: ALK Potency
Outline: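 Eu-PT66 anti-phosphotyrosine TRF read-out measured phosphorylation of plate-bound GST-PLC-γ (coated at 10 μg/mL). The phosphorylation was driven by 30 ng/mL ALK for 15 minutes at 37° C.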

[2] = target: baculovirus-expressed JAK2 kinase (Homo sapiens, UniProt O60674); assay: biochemical; conditions: 0.2 μM ATP; read-out: JAK2 Potency
Outline: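 IC50 derived by variable-slope sigmoidal fit of percent inhibition against log compound concentration. Baculovirus-expressed JAK2 (15 ng/mL) phosphorylated a plate-bound biotinylated 15-mer peptide for 20 min at room temperature; detection by time-resolved fluorescence.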

Sequence of baculovirus-expressed ALK (Q9UM73 19-1620): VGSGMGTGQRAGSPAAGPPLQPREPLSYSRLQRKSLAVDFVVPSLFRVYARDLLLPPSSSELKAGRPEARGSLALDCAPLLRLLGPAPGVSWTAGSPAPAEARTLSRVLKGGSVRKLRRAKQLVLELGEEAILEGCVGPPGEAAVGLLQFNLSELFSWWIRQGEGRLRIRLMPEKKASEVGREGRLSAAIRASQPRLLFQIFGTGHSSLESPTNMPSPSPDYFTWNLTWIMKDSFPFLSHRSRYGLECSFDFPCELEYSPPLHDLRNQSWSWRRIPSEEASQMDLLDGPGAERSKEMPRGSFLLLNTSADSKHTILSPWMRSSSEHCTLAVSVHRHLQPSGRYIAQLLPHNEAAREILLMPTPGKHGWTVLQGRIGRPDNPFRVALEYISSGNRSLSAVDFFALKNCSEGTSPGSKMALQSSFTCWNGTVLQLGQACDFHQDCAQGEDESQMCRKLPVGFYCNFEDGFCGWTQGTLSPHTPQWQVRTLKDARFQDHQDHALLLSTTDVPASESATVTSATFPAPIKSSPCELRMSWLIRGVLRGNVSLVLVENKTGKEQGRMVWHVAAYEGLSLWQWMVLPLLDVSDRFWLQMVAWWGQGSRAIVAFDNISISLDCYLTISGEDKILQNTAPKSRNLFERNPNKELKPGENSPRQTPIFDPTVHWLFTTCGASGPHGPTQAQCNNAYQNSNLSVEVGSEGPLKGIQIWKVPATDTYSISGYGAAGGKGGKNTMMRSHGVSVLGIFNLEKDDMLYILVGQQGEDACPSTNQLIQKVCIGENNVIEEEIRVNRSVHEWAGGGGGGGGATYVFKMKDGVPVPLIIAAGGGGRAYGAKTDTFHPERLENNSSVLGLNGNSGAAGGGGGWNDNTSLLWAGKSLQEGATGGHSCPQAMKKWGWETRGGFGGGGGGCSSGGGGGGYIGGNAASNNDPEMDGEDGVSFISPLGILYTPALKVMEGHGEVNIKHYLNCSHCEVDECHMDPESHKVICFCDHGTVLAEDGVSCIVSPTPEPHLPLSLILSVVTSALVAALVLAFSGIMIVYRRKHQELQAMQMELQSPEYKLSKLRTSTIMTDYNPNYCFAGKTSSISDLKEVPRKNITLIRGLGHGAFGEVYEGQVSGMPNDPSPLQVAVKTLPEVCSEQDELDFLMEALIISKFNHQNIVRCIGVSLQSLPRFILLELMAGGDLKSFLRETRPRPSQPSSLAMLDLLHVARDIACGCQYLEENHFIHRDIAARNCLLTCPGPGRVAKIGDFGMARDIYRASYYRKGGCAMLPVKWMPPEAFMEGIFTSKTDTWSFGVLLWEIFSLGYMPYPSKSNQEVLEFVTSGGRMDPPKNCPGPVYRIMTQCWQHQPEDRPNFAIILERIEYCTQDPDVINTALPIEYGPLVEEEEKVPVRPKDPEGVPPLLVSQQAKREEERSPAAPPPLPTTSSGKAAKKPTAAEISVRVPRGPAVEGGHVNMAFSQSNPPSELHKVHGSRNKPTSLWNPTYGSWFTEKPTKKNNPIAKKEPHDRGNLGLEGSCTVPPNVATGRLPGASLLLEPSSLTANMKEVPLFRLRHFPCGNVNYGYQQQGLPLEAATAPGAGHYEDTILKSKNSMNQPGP
Sequence of baculovirus-expressed JAK2 kinase (O60674 whole entry): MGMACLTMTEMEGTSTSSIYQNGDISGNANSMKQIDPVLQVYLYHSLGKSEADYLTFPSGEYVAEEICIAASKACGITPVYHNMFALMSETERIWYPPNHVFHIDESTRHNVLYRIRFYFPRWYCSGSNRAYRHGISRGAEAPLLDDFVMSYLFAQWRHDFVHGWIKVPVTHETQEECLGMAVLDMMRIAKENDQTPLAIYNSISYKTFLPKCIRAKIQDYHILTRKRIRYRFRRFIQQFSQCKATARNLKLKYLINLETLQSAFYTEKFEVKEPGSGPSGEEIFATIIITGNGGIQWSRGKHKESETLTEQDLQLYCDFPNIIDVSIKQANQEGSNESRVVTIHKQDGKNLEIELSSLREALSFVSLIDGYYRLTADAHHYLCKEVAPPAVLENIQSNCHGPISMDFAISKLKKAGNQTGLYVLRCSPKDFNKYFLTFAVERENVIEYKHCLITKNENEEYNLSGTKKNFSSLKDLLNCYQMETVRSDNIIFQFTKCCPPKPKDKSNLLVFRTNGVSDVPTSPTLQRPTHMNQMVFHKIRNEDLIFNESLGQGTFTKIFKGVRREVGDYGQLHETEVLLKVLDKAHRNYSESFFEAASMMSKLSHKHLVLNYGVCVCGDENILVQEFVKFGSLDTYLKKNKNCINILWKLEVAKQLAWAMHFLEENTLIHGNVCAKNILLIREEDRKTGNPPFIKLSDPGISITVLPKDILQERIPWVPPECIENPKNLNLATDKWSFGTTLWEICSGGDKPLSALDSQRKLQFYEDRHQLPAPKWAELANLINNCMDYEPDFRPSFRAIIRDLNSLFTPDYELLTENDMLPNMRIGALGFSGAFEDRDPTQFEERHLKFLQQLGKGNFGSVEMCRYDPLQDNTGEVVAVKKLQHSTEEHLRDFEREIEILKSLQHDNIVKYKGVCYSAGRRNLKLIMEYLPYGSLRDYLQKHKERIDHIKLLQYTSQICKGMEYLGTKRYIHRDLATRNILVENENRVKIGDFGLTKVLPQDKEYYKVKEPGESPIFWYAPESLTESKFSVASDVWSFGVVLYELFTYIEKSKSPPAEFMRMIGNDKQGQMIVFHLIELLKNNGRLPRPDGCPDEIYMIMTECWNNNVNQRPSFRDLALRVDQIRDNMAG

| SMILES | IC50 [1] | IC50 [2] |
| --- | --- | --- |
| NC(=O)[C@@H]1[C@H](Nc2c(Br)cnc3[nH]c(-c4ccnc(N5CCOCC5)c4)nc23)[C@H]2C=C[C@@H]1C2 [Compound CXXXVI, (1S,2S,3R,4R)-3-[6-Bromo-2-(2-morpholin-4-yl-pyridin-4-yl)-3H-imidazo[4,5-b]pyridin-7-ylamino]-bicyclo[2.2.1]hept-5-ene-2-carboxylic acid amide] | 100 to 1000 nM | < 100 nM |
| CC(C)(C)OC(=O)N1CCCC(c2nc3c(N[C@H]4[C@@H](C(N)=O)[C@@H]5C=C[C@H]4C5)c(Cl)cnc3[nH]2)C1 (stereo partly drawn) [Compound XI, 3-[7-((1R,2R,3S,4S)-3-Carbamoyl-bicyclo[2.2.1]hept-5-en-2-ylamino)-6-chloro-3H-imidazo[4,5-b]pyridine-2-yl]-piperidine-1-carboxylic acid tert-butyl ester] | > 10000 nM | > 10000 nM |
| NC(=O)[C@@H]1[C@H](Nc2c(Cl)cnc3[nH]c(C4CCCNC4)nc23)[C@H]2C=C[C@@H]1C2 (single isomer, unassigned) [XIII] | > 10000 nM | > 10000 nM |
| NC(=O)[C@@H]1[C@H](Nc2c(Cl)cnc3[nH]c(-c4ccc(C(=O)O)cc4)nc23)[C@H]2C=C[C@@H]1C2 [Compound CCXVIII, 4-(7-((1R,2R,3S,4S)-3-carbamoylbicyclo[2.2.1]hept-5-en-2-ylamino)-6-chloro-3H-imidazo[4,5-b]pyridin-2-yl)benzoic acid] | 100 to 1000 nM | < 100 nM |
| COc1cc(CN(C)C)ccc1-c1nc2c(N[C@H]3[C@@H](C(N)=O)[C@@H]4C=C[C@H]3C4)c(Cl)cnc2[nH]1 [Compound XLVI, (1S,2S,3R,4R)-3-[6-Chloro-2-(4-dimethylaminomethyl-2-methoxyphenyl)-3H-imidazo[4,5-b]pyridine-7-ylamino)-bicyclo[2.2.1]hept-5-ene-2-carboxylic acid amide, trifluoroacetic acid salt] | < 100 nM | < 100 nM |
| NC(=O)[C@@H]1[C@H](Nc2c(Cl)cnc3[nH]c(-c4ccc(N5CCNCC5)cc4)nc23)[C@H]2C=C[C@@H]1C2 [Compound XV, (1S,2S,3R,4R)-3-[6-Chloro-2-(4-piperazin-1-yl-phenyl)-3H-imidazo[4,5-b]pyridin-7-ylamino]-bicyclo[2.2.1]hept-5-ene-2-carboxylic acid amide trifluoroacetic acid salt] | < 100 nM | < 100 nM |
| CN1CCN(C(=O)c2cccc(-c3nc4c(N[C@H]5[C@@H](C(N)=O)[C@@H]6C=C[C@H]5C6)c(Cl)cnc4[nH]3)c2)CC1 [Compound CCXXI, (1S,2S,3R,4R)-3-(6-chloro-2-(3-(4-methylpiperazine-1-carbonyl)phenyl)-3H-imidazo[4,5-b]pyridin-7-ylamino)bicyclo[2.2.1]hept-5-ene-2-carboxamide] | 100 to 1000 nM | < 100 nM |
| CC(C)NC(=O)[C@@H]1[C@H](Nc2c(Cl)cnc3[nH]c(-c4sc(N5CCOCC5)nc4Cl)nc23)[C@H]2C=C[C@@H]1C2 [Compound CLXIII, (1S,2S,3R,4R)-3-[6-Chloro-2-(4-chloro-2-morpholin-4-yl-thiazol-5-yl)-3H-imidazo[4,5-b]pyridin-7-ylamino]-bicyclo[2.2.1]hept-5-ene-2-carboxylic acid isopropylamide] | < 100 nM | > 10000 nM |
| Cc1cc(N2CCOCC2)ccc1-c1nc2c(N[C@H]3[C@@H](C(N)=O)[C@@H]4C=C[C@H]3C4)c(Cl)cnc2[nH]1 [Compound CXXI, (1S,2S,3R,4R)-3-[6-Chloro-2-(2-methyl-4-morpholin-4-yl-phenyl)-3H-imidazo[4,5-b]pyridin-7-ylamino]-bicyclo[2.2.1]hept-5-ene-2-carboxylic acid amide] | 100 to 1000 nM | < 100 nM |
| NC(=O)COc1ccc(-c2nc3c(N[C@H]4[C@@H](C(N)=O)[C@@H]5C=C[C@H]4C5)c(Cl)cnc3[nH]2)cc1 [Compound CCXL, (1S,2S,3R,4R)-3-(2-(4-(2-amino-2-oxoethoxy)phenyl)-6-chloro-3H-imidazo[4,5-b]pyridin-7-ylamino)bicyclo[2.2.1]hept-5-ene-2-carboxamide] | 100 to 1000 nM | < 100 nM |
| NC(=O)[C@@H]1[C@H](Nc2c(Cl)cnc3[nH]c(-c4cnc(N5CCOCC5)s4)nc23)[C@H]2C=C[C@@H]1C2 [Compound CCX, (1S,2S,3R,4R)-3-(6-chloro-2-(2-morpholinothiazol-5-yl)-3H-imidazo[4,5-b]pyridin-7-ylamino)bicyclo[2.2.1]hept-5-ene-2-carboxamide] | < 100 nM | < 100 nM |
| NC(=O)[C@@H]1[C@H](Nc2c(Cl)cnc3[nH]c(-c4cccc(C(=O)N5CCNCC5)c4)nc23)[C@H]2C=C[C@@H]1C2 [Compound CCXIX, (1S,2S,3R,4R)-3-(6-chloro-2-(3-(piperazine-1-carbonyl)phenyl)-3H-imidazo[4,5-b]pyridin-7-ylamino)bicyclo[2.2.1]hept-5-ene-2-carboxamide] | < 100 nM | < 100 nM |

More lines, now with the values ahead:

| IC50 [1] | IC50 [2] | SMILES |
| --- | --- | --- |
| < 100 nM | < 100 nM | NC(=O)[C@@H]1[C@H](Nc2c(Br)cnc3[nH]c(-c4ccc(CN5CCOCC5)cc4)nc23)[C@H]2C=C[C@@H]1C2 [Compound LXXX, (1S,2S,3R,4R)-3-[6-Bromo-2-(4-morpholin-4-ylmethyl-phenyl)-3H-imidazo[4,5-b]pyridin-7-ylamino]-bicyclo[2.2.1]hept-5-ene-2-carboxylic acid amide] |
| < 100 nM | < 100 nM | Cc1nn(C)c(C)c1-c1nc2c(N[C@H]3[C@@H](C(N)=O)[C@@H]4C=C[C@H]3C4)c(Cl)cnc2[nH]1 [Compound CLI, (1S,2S,3R,4R)-3-[6-Chloro-2-(1,3,5-trimethyl-1H-pyrazol-4-yl)-3H-imidazo[4,5-b]pyridin-7-ylamino]-bicyclo[2.2.1]hept-5-ene-2-carboxylic acid amide] |
| < 100 nM | 1000 to 10000 nM | COc1cc(CN2CC[C@@H](O)C2)ccc1-c1nc2c(N[C@@H]3CCCC[C@H]3NS(C)(=O)=O)c(Cl)cnc2[nH]1 [Compound LXXV, N-((1R,2R)-2-{6-Chloro-2-[4-((R)-3-hydroxy-pyrrolidin-1-ylmethyl)-2-methoxy-phenyl]-3H-imidazo[4,5-b]pyridine-7-ylamino}-cyclohexyl)-methanesulfonamide] |
| < 100 nM | < 100 nM | C[C@@H](O)CN1CCC(n2cc(-c3nc4c(N[C@H]5[C@@H](C(N)=O)[C@@H]6C=C[C@H]5C6)c(Cl)cnc4[nH]3)cn2)CC1 [Compound LVIII, (1S,2S,3R,4R)-3-(6-Chloro-2-{1-[1-((R)-2-hydroxypropyl)-piperidin-4-yl]-1H-pyrazol-4-yl}-3H-imidazo[4,5-b]pyridine-7-ylamino)-bicyclo[2.2.1]hept-5-ene-2-carboxylic acid amide] |
| < 100 nM | < 100 nM | CN(C)c1nc(Cl)c(-c2nc3c(N[C@H]4[C@@H](C(N)=O)[C@@H]5C=C[C@H]4C5)c(Br)cnc3[nH]2)s1 [Compound CLV, (1S,2S,3R,4R)-3-[6-Bromo-2-(4-chloro-2-dimethylamino-thiazol-5-yl)-3H-imidazo[4,5-b]pyridin-7-ylamino]-bicyclo[2.2.1]hept-5-ene-2-carboxylic acid amide] |
| < 100 nM | < 100 nM | CN1CCC(Oc2cccc(-c3nc4c(N[C@H]5[C@@H](C(N)=O)[C@@H]6C=C[C@H]5C6)c(Cl)cnc4[nH]3)c2)CC1 [Compound CCXLVIII, (1S,2S,3R,4R)-3-(6-chloro-2-(3-(1-methylpiperidin-4-yloxy)phenyl)-3H-imidazo[4,5-b]pyridin-7-ylamino)bicyclo[2.2.1]hept-5-ene-2-carboxamide] |
